Measurements published in the NIST ThermoML archive (doi:10.1016/j.jct.2016.01.021).

Tests used:
[1] = 100 kPa, Liquid; for viscosity: Capillary tube (Ostwald / Ubbelohde) method; for mass density: Vibrating tube method
[2] = xn = mol fraction of the nth substance listed; conditions: 100 kPa, Liquid, x1 = 1; for viscosity: Capillary tube (Ostwald / Ubbelohde) method; for mass density: Vibrating tube method

CCCCCCCCCCCCCCCC [hexadecane]
[1]
Conditions	mass density [kg/m3]	viscosity [mPa·s]
298.15 K	769.92	3.085
303.15 K	766.51	2.756
308.15 K	763.06	2.478
313.15 K	759.6	2.239
318.15 K	756.14	2.034
323.15 K	752.68	1.857

CCCCCCCCCCCCCCCC [hexadecane] + CCCCCCCCCCCC(=O)OCC
[2]
Conditions	mass density [kg/m3]	viscosity [mPa·s]
298.15 K	769.92	3.085
303.15 K	766.51	2.756
308.15 K	763.06	2.478
313.15 K	759.6	2.239
318.15 K	756.14	2.034
323.15 K	752.68	1.857

CCCCCCCCCC(=O)OCC [ethyl decanoate]
[1]
Conditions	mass density [kg/m3]	viscosity [mPa·s]
298.15 K	860.05	2.115
303.15 K	855.99	1.919
308.15 K	851.92	1.75
313.15 K	847.85	1.603
318.15 K	843.77	1.474
323.15 K	839.69	1.362

CCCCCCCCCCCCCCCC [hexadecane] + CCCCCCCCCC(=O)OCC
[2]
Conditions	mass density [kg/m3]	viscosity [mPa·s]
298.15 K	769.92	3.085
303.15 K	766.51	2.756
308.15 K	763.06	2.478
313.15 K	759.6	2.239
318.15 K	756.14	2.034
323.15 K	752.68	1.857

CCCCCCCC(=O)OCC [ethyl octanoate]
[1]
Conditions	mass density [kg/m3]	viscosity [mPa·s]
298.15 K	862.64	1.428
303.15 K	858.34	1.313
308.15 K	854.04	1.211
313.15 K	849.72	1.121
318.15 K	845.39	1.042
323.15 K	841.06	0.971

CCCCCCCCCCCCCCCC [hexadecane] + CCCCCCCC(=O)OCC
[2]
Conditions	mass density [kg/m3]	viscosity [mPa·s]
298.15 K	769.92	3.085
303.15 K	766.51	2.756
308.15 K	763.06	2.478
313.15 K	759.6	2.239
318.15 K	756.14	2.034
323.15 K	752.68	1.857

CCCCCCCCCCCC(=O)OCC [ethyl dodecanoate]
[1]
Conditions	mass density [kg/m3]	viscosity [mPa·s]
298.15 K	858.19	3.015
303.15 K	854.3	2.704
308.15 K	850.4	2.439
313.15 K	846.5	2.213
318.15 K	842.6	2.016
323.15 K	838.7	1.846
